“Also recorded” adds a separate entry of the source. Where no end group is shown, it is not given here.
Tests used:
ECE-1 [1] = target: T1, ECE-1 (Bos taurus, UniProt P42891); assay: Substrate kinetics and isopeptide substrate selectivity of ECE-1; type: biochemical, bovine; settings: big ET-1 0.01-10 μM; 20 μg crude membrane proteins, 30 min; read-out: apparent Km of ECE-1
T1 construct: made in house
T1 sequence (P42891 1-754): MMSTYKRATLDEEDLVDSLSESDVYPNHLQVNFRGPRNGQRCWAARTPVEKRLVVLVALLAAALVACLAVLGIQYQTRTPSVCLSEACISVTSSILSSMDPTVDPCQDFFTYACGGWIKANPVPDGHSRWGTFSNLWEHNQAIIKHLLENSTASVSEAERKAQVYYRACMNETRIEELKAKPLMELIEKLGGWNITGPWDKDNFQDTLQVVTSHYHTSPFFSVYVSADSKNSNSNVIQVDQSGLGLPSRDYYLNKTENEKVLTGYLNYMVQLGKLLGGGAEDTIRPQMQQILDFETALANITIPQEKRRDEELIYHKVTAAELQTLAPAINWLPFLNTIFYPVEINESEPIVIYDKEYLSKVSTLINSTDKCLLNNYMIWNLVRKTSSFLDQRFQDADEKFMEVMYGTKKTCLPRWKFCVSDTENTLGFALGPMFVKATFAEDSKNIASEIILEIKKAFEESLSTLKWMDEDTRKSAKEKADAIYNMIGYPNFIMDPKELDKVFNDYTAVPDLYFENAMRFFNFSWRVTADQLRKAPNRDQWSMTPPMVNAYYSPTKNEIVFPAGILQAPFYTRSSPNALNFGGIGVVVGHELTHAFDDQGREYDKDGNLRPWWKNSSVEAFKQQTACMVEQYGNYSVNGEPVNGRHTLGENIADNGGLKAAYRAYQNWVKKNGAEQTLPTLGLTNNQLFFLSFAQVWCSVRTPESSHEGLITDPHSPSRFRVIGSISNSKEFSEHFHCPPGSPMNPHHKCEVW
Experimental: Solubilized crude membranes were prepared in parallel from CHO/ECE-2 and CHO/ECE-1 cells as described (Xu et al., 1994). For protease inhibitor studies, membranes were prepared without protease inhibitors. Standard reaction mixtures for the ECE-2 assay (50 μl) contained 0.1M 2-[N-morpholino]ethanesulfonic acid (MES) buffer (pH 5.5), 0.5M NaCl, 0.1 μM human big ET-1 and an enzyme fraction. ECE-1 assay reactions contained 0.1M phosphate buffer (pH 6.8) instead of the MES buffer. For the pH profiling and isopeptide selectivity studies, the buffer solution (0.1M) or the substrate (0.1 μM) was substituted as designated. For the inhibitor studies, the reactions were preincubated at 37° C. with protease inhibitor or vehicle for 15 min. Reactions were started by the addition of substrate, and incubated at 37° C. for 30 min in siliconized 0.5-ml microcentrifuge tubes. […] The mixture was then directly assayed for mature ET-1 as described (Suzuki et al., 1989). Duplicate assay wells were used for each enzyme reaction. For big ET-2 and big ET-3 conversion assays, mature ET-1 EIA (which fully cross-reacts with mature ET-2) and mature ET-3 EIA were used with human ET-2 and ET-3 as standards, respectively (Matsumoto et al., 1989). Protein concentrations were determined by the Bradford method (Bio-Rad) using IgG as standard.

ECE-2 [2] = target: T2, ECE-2 (Bos taurus, UniProt P0DPE2); assay: Substrate kinetics and isopeptide substrate selectivity of ECE-2; type: biochemical, bovine
T2 construct: solubilized crude membranes or live cells
T2 sequence (P0DPE2 97-883): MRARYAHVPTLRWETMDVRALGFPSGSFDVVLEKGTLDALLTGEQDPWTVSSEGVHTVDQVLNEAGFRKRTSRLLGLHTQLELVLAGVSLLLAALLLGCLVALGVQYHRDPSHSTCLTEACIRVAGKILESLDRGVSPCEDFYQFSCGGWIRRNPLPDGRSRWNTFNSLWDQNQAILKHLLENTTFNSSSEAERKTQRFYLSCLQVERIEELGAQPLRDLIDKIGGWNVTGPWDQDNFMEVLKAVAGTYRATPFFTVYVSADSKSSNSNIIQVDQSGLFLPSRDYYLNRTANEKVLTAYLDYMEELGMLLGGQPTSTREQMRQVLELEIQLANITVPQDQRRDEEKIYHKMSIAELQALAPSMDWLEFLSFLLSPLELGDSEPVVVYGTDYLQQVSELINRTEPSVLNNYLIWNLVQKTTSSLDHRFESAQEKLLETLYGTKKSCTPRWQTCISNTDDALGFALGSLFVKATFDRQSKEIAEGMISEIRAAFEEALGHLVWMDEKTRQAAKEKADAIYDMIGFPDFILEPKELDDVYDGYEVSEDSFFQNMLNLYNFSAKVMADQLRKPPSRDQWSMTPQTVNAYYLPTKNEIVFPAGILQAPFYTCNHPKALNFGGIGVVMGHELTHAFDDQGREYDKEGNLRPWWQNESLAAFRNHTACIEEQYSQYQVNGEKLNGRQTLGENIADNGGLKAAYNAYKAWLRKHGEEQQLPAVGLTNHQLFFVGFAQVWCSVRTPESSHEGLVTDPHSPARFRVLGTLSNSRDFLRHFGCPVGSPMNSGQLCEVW
Experimental: Isopeptide substrate selectivity of ECE-2. Substrates are: closed circles, big ET-1 (1-38); closed squares, big ET-2 (1-38); and closed triangles, big ET-3 (1-41 Amide). Activity is reported as conversion (fmol/30 min) vs μg of membrane protein.
Solubilized crude membranes were prepared in parallel from CHO/ECE-2 and CHO/ECE-1 cells as described (Xu et al., 1994). […] Standard reaction mixtures for the ECE-2 assay (50 μl) contained 0.1M 2-[N-morpholino]ethanesulfonic acid (MES) buffer (pH 5.5), 0.5M NaCl, 0.1 μM human big ET-1 and an enzyme fraction. […] For the pH profiling and isopeptide selectivity studies, the buffer solution (0.1M) or the substrate (0.1 μM) was substituted as designated. […] Reactions were started by the addition of substrate, and incubated at 37° C. for 30 min in siliconized 0.5-ml microcentrifuge tubes. […] The mixture was then directly assayed for mature ET-1 as described (Suzuki et al., 1989). Duplicate assay wells were used for each enzyme reaction. For big ET-2 and big ET-3 conversion assays, mature ET-1 EIA (which fully cross-reacts with mature ET-2) and mature ET-3 EIA were used with human ET-2 and ET-3 as standards, respectively (Matsumoto et al., 1989). Protein concentrations were determined by the Bradford method (Bio-Rad) using IgG as standard.

[3] = Stability of big and mature endothelin isopeptides with crude membrane proteins, ECE-2 assay conditions (pH 5.6); type: physicochemical
ECE-1 [4] = target: T1, ECE-1; assay: Protease inhibitor assay of ECE-1, solubilized CHO/ECE-1 membranes, big ET-1 conversion, pH 6.8; type: biochemical, bovine; settings: for inhibition of ECE-1: sensitivity to protease inhibitors, Table 2; for Percent ECE-1 activity remaining with inhibitor (of control): Inhibitor 100 μM, solubilized CHO/ECE-1 membranes, control 100
Experimental: Solubilized crude membranes were prepared in parallel from CHO/ECE-2 and CHO/ECE-1 cells as described (Xu et al., 1994). For protease inhibitor studies, membranes were prepared without protease inhibitors. Standard reaction mixtures for the ECE-2 assay (50 μl) contained 0.1M 2-[N-morpholino]ethanesulfonic acid (MES) buffer (pH 5.5), 0.5M NaCl, 0.1 μM human big ET-1 and an enzyme fraction. ECE-1 assay reactions contained 0.1M phosphate buffer (pH 6.8) instead of the MES buffer. For the pH profiling and isopeptide selectivity studies, the buffer solution (0.1M) or the substrate (0.1 μM) was substituted as designated. For the inhibitor studies, the reactions were preincubated at 37° C. with protease inhibitor or vehicle for 15 min. Reactions were started by the addition of substrate, and incubated at 37° C. for 30 min in siliconized 0.5-ml microcentrifuge tubes. […] The mixture was then directly assayed for mature ET-1 as described (Suzuki et al., 1989). Duplicate assay wells were used for each enzyme reaction. […] Protein concentrations were determined by the Bradford method (Bio-Rad) using IgG as standard.

ECE-2 [5] = target: T2, ECE-2; assay: Protease inhibitor assay of ECE-2, solubilized CHO/ECE-2 membranes, big ET-1 conversion, pH 5.5; type: biochemical, bovine; settings: for inhibition of ECE-2: in vitro sensitivity to inhibitors; for Percent of control ECE-2 activity remaining with inhibitor: Inhibitor 100 μM, solubilized CHO/ECE-2 membranes, control 100
Experimental: Solubilized crude membranes were prepared in parallel from CHO/ECE-2 and CHO/ECE-1 cells as described (Xu et al., 1994). For protease inhibitor studies, membranes were prepared without protease inhibitors. Standard reaction mixtures for the ECE-2 assay (50 μl) contained 0.1M 2-[N-morpholino]ethanesulfonic acid (MES) buffer (pH 5.5), 0.5M NaCl, 0.1 μM human big ET-1 and an enzyme fraction. […] For the inhibitor studies, the reactions were preincubated at 37° C. with protease inhibitor or vehicle for 15 min. Reactions were started by the addition of substrate, and incubated at 37° C. for 30 min in siliconized 0.5-ml microcentrifuge tubes. […] The mixture was then directly assayed for mature ET-1 as described (Suzuki et al., 1989). Duplicate assay wells were used for each enzyme reaction.

[6] = cartilage; literature; cited from earlier work
ECE-1 [7] = target: T1, ECE-1; assay: Coculture of CHO/ECE-1 and CHO/preproET-1 cells: cleavage of exogenously supplied big ET-1; type: cell-based, bovine
Experimental: (§1) Production of mature ET-1 by CHO/ECE-1-CHO/preproET-1 and CHO/ECE-2-CHO/preproET-1 cocultures: Cleavage of exogenously supplied big ET-1. […] Negative control experiments were performed by coculturing parental CHO cells with CHO/preproET-1 cells. Open circles, CHO/ET-1+CHO/ECE-1 (Phos); closed circles, CHO/ET-1+CHO/ECE-1 (FR); open squares, CHO/ET-1+CHO/ECE-2 (Phos); closed squares, CHO/ET-1+CHO/ECE-2 (FR); open triangles, CHO/ET-1+CHO-K1 (Phos).
(§2) This was tested by coculturing the stable transfectant CHO/preproET-1 cells with either CHO/ECE-1 or CHO/ECE-2 cells, and determining the amount of mature ET-1 in the medium.

ECE-2 [8] = target: T2, ECE-2; assay: Coculture of CHO/ECE-2 and CHO/preproET-1 cells: cleavage of exogenously supplied big ET-1; type: cell-based, bovine; settings: up to 100 μM
Experimental: as §1, §2

ECE-2 [9] = target: T2, ECE-2; assay: Double-transfection live cell assay: mature ET-1 secretion by CHO/ECE-2 cells transfected with preproET-1 cDNA; type: cell-based, bovine
Experimental: Production of mature ET-1 by CHO/ECE-2 cells transiently transfected with preproET-1 cDNA: Cleavage of endogenously produced big ET-1. Doubly transfected cells were cultured for 12 h in the absence or presence of the designated concentrations of ECE inhibitors, and mature ET-1 in the conditioned medium was determined. Negative control studies with parental CHO cells are shown by dashed lines.
CHO/ECE-2 cells and untransfected CHO cells were transiently transfected in parallel with a preproET-1 construct, and mature ET-1 secreted from these cells into the medium was determined by EIA.
CHO-K1 cells were cultured as described (Xu et al., 1994). Since many batches of tissue culture-grade trypsin preparations contained high levels of metalloprotease contaminants with an ECE-like activity, a highly purified crystallized preparation of trypsin (Sigma, Catalog No. T7418) was dissolved in phosphate-buffered saline at 0.013% (w/v) and used for all trypsinization procedures. […] Twelve hours after the transient transfection, cells were refed with fresh medium with or without ECE inhibitors. The medium was conditioned for an additional 12 h and directly subjected to enzyme immunoassay (EIA) for mature ET-1 (Suzuki et al., 1989).

big ET-1 [10] = assay: pH profile of ECE activity; type: biochemical, human
Experimental: FIG. 1B. pH profile of ECE-2. […] Buffers are: open squares, acetate; closed squares, MES; open circles, phosphate; closed circles, Tris; open triangles, glycine.
FIG. 1B is a pH profile of ECE-2. Optimal activity of ECE-2 is at pH 5.5 in contrast to the previously discovered ECE-1, which has optimal activity at pH 6.8. […] In all subsequent studies, ECE-2 assays were performed at pH 5.5. […] A majority of the ECE-2 activity in the CHO/ECE-2 cell homogenates was found in the membrane fraction. No significant ECE-2 activity was detected in the culture supernatants from CHO/ECE-2 cells.
Solubilized crude membranes were prepared in parallel from CHO/ECE-2 and CHO/ECE-1 cells as described (Xu et al., 1994). For protease inhibitor studies, membranes were prepared without protease inhibitors. Standard reaction mixtures for the ECE-2 assay (50 μl) contained 0.1M 2-[N-morpholino]ethanesulfonic acid (MES) buffer (pH 5.5), 0.5M NaCl, 0.1 μM human big ET-1 and an enzyme fraction. ECE-1 assay reactions contained 0.1M phosphate buffer (pH 6.8) instead of the MES buffer. For the pH profiling and isopeptide selectivity studies, the buffer solution (0.1M) or the substrate (0.1 μM) was substituted as designated. […] Protein concentrations were determined by the Bradford method (Bio-Rad) using IgG as standard.

big ET-1 [11] = settings: cited from earlier work

Molecule: big ET-1: Synthetic human big ET-1[1-38] (CSCSSLMDKECVYFCHLDIIWVNTPEHVVPYGLGSPRS; ends and bridges not checked; cysteine pairing not given here; UniProt P05305 53-90, looked up)
- Km (ECE-1 [1]): 1 to 2 µM
- relative rate of cleavage by ECE-2 (ECE-2 [2]; 20-40 μg membrane proteins, optimal pH): 100%
- Km (ECE-2 [2]; big ET-1 0.01-10 μM, 20 μg crude membrane proteins, 30 min, read-out: apparent Km of ECE-2): 1 to 2 µM
- rate of degradation among isopeptides [3]: degraded at similar rates

Molecule: C[C@H](CS)C(=O)N1CCC[C@H]1C(=O)O [Captopril]
- inhibition of ECE-1 (ECE-1 [4]): not inhibited
- inhibition of ECE-2 (ECE-2 [5]): not inhibited

Molecule: ET-2: Synthetic human ET-2 (CSCSSWLDKECVYFCHLDIIW; ends and bridges not checked; cysteine pairing not given here; UniProt P20800 49-69, looked up)
- rate of degradation among isopeptides [3]: degraded at similar rates

Molecule: ET-1: Synthetic human ET-1; 21-amino-acid peptide
- rate of degradation among isopeptides [3]: degraded at similar rates

Molecule: matrix metalloproteinase-3: matrix metalloprotease in cartilage, matrix metalloproteinase-3 (MMP-3; stromelysin-1)
- pH optimum [6]: 5.3-5.5

Molecule: O=S(=O)(O)c1cc[c]([Hg][Cl])cc1 [pCMS, p-chloromercuriphenylsulphonic acid]
- Percent ECE-1 activity remaining with inhibitor (of control) (ECE-1 [4]): 136%
- Percent of control ECE-2 activity remaining with inhibitor (ECE-2 [5]): 345%
- inhibition of ECE-2 (ECE-2 [5]): augmented the activity of ECE-2

Molecule: N=C(N)c1ccc(CS(=O)(=O)F)cc1 [APMSF, 4-amidinophenylmethylsulphonyl fluoride]
- Percent ECE-1 activity remaining with inhibitor (of control) (ECE-1 [4]): 107%
- Percent of control ECE-2 activity remaining with inhibitor (ECE-2 [5]): 93%

Molecule: COc1c2c(c(O)c3c1C(O)Cc1cc(CC(C)O)c(C(=O)O)c(O)c1-3)C(=O)c1cccc(O)c1C2=O (stereo not drawn) [FR901533, 1,6,9,14-tetrahydroxy-3-(2-hydroxypropyl)-7-methoxy-8,13-dioxo-5,6,8,13-tetrahydro-benzo[α]naphthacene-2-carboxylate .cndot. Na]
- IC50 (ECE-1 [7]): ~1000 nM
- IC50 (ECE-1 [4]; in vitro, pH 6.8): 2000 nM
- inhibition of ECE-1 (ECE-1 [4]): inhibited
- inhibition of mature peptide production, CHO/ECE-2 coculture (ECE-2 [8]): not inhibited
- inhibition of conversion in transfected CHO/ECE-2 cells (ECE-2 [9]; added to medium at up to 1 mM): did not appreciably inhibit the conversion
- inhibition of ECE-2 (ECE-2 [5]): inhibited; also recorded: efficiently inhibits the conversion of big ET-1 by ECE-2 in vitro
- IC50 (ECE-2 [5]; in vitro, pH 5.5): 3000 nM

Molecule: ET-3: Synthetic human ET-3
- rate of degradation among isopeptides [3]: degraded at similar rates

Molecule: O=C(O)CNC(=O)C(CS)Cc1ccccc1 (stereo not shown) [Thiorphan]
- inhibition of ECE-1 (ECE-1 [4]): not inhibited
- inhibition of ECE-2 (ECE-2 [5]): not inhibited

B1: ECE-2: novel membrane-bound metalloprotease; 787-amino-acid polypeptide, SEQ ID NO:2 (protein)
chain: MRARYAHVPTLRWETMDVRALGFPSGSFDVVLEKGTLDALLTGEQDPWTVSSEGVHTVDQVLNEAGFRKRTSRLLGLHTQLELVLAGVSLLLAALLLGCLVALGVQYHRDPSHSTCLTEACIRVAGKILESLDRGVSPCEDFYQFSCGGWIRRNPLPDGRSRWNNSNSLWDQNQAILKHLLENTTFNSSSEAERKTQRFYLSCLQVERIEELGAHALRDLIDKIGGWNVTGPWDQDNFMEVLKAVAGTYRATPFFTVYVSADSKSSNSNIIQVDQSGLFLPSRDYYLNRTANEKVLTAYLDYMEELGMLLGGQPTSTREQMRQVLELEIQLANITVPQDQRRDEEKIYHKMSIAELQALAPSMDWLEFLSFLLSPLELGDSEPVVVYGTDYLQQVSELINRTEPSVLNNYLIWNLVQKTTSSLDHRFESAQEKLLETLYGTKKSCTPRWQTCISNTDDALGFALGSLFVKATFDRQSKEIAEGMISEIRVAFEEALGHLVWMDEKTRQAAKEKADAIYDMIGFPDFILEPKELDDVYDGYEVSEDSFFQNMLNLYNFSAKVMADQLRKPPSRDQWSMTPQTVNAYYLPTKNEIVFPAGILQAPFYTCNHPQALNFGGIGVVMGHELTHAFDDQGREYDKEGNLRPWWQNESLAAFRNHTACIEEQYSQYQVNGEKLNGRQTLGENIADNGGLKAAYNAYKAWLRKHGEEQQLPAVGLTNHQLFFVGFAQVWCSVRTPESSHEGLVTDPHSPARFRVLGTLSNSRDFLRHFGCPVGSPMNSGQLCEVW
- pH of optimal activity (big ET-1 [10]; conversion of big ET-1): 5.5
- activity at neutral pH (6.8) (big ET-1 [10]; standard ECE-1 assay): virtually inactive
- total endothelin peptides converted to mature ET-1 (ECE-2 [9]; double-transfection assays): up to 40%

B2: ECE-1: type II membrane-bound metalloprotease that processed endogenously produced big ET-1 (protein, UniProt P42892 1-770, looked up)
Endothelin-converting enzyme 1: MRGVWPPPVSALLSALGMSTYKRATLDEEDLVDSLSEGDAYPNGLQVNFHSPRSGQRCWAARTQVEKRLVVLVVLLAAGLVACLAALGIQYQTRSPSVCLSEACVSVTSSILSSMDPTVDPCHDFFSYACGGWIKANPVPDGHSRWGTFSNLWEHNQAIIKHLLENSTASVSEAERKAQVYYRACMNETRIEELRAKPLMELIERLGGWNITGPWAKDNFQDTLQVVTAHYRTSPFFSVYVSADSKNSNSNVIQVDQSGLGLPSRDYYLNKTENEKVLTGYLNYMVQLGKLLGGGDEEAIRPQMQQILDFETALANITIPQEKRRDEELIYHKVTAAELQTLAPAINWLPFLNTIFYPVEINESEPIVVYDKEYLEQISTLINTTDRCLLNNYMIWNLVRKTSSFLDQRFQDADEKFMEVMYGTKKTCLPRWKFCVSDTENNLGFALGPMFVKATFAEDSKSIATEIILEIKKAFEESLSTLKWMDEETRKSAKEKADAIYNMIGYPNFIMDPKELDKVFNDYTAVPDLYFENAMRFFNFSWRVTADQLRKAPNRDQWSMTPPMVNAYYSPTKNEIVFPAGILQAPFYTRSSPKALNFGGIGVVVGHELTHAFDDQGREYDKDGNLRPWWKNSSVEAFKRQTECMVEQYSNYSVNGEPVNGRHTLGENIADNGGLKAAYRAYQNWVKKNGAEHSLPTLGLTNNQLFFLGFAQVWCSVRTPESSHEGLITDPHSPSRFRVIGSLSNSKEFSEHFRCPPGSPMNPPHKCEVW
- pH optimum of previously discovered ECE-1 (big ET-1 [11]): 6.8

Reference: patent publication US5736376A, “Recombinant endothelin converting enzyme-2 and its use in ECE inhibitor screening” (Board of Regents, The University of Texas System, priority 1995, dated 1998)
